Here are results for 3 compounds from patent US10875830B2, “Method of treatment” (priority 2016, dated 2020).

Test [1] concerns P. aeruginosa PAO1 pqsA::lux. The test is described as follows: pqsA::lux promoter fusion biosensor in P. aeruginosa PAO1-L (AQ-dependent quorum sensing). Format: cell-based, Pseudomonas aeruginosa. To be noted: for IC50: Pseudomonas aeruginosa, PAO1, read-out: IC50, pqsA::lux expression; for inhibition of light output / pqsA expression at high concentrations: FIG. 6 and 7. The protocol: The expression of rhl and las AHL- and the pqsA AQ-synthase genes was evaluated using lux-based lasl (FIG. 1), rhll (FIG. 2) and pqsA (FIG. 3) chromosomally integrated promoter fusions. Luminescence was quantified as a function of bacterial growth. The applicant further determined that none of the lactams is growth inhibitory at 100 μM using a large number of strains (figure not shown).
To determine the relative inhibitory activities (IC50s) of 4-(4-chlorophenyl)-5-methylene-pyrrol-2-one (Ref. 488) and 5-methylene-4-(p-tolyl)pyrrol-2-one (Ref. 491), dose response curves were constructed using the same biosensor strain (P. aeruginosa PAO1 pqsA::lux; Fletcher et al, 2007; Ilangovan et al 2013). This strain produces light in response to the endogenous production of AQs such as PQS and HHQ.

Test [2] addresses T1, PqsR (Pseudomonas aeruginosa, UniProt Q9I4X0).
T1 construct: endogenous in cells; host or cells: P. aeruginosa PAO1-L ΔpqsA, chromosomal pqsA::lux fusion
Nature of the test: PQS-dependent pqsA::lux expression in AQ-non producing PAO1-L ΔpqsA (PqsR antagonism). The class given is cell-based. The source says:
The inhibitory action of 4-(4-chlorophenyl)-5-methylene-pyrrol-2-one (Ref. 488) may involve inhibition of AQ biosynthesis or 4-(4-chlorophenyl)-5-methylene-pyrrol-2-one (Ref. 488) may behave like an antagonist and block the PQS receptor, PqsR. […] Experiments were therefore designed to determine the nature and degree of 4-(4-chlorophenyl)-5-methylene-pyrrol-2-one (Ref. 488) inhibitory activity.
By using the AQ-non producing P. aeruginosa strain PAO1-L ΔpqsA, pqsA::lux, the EC50 value for the native PqsR agonist, PQS was calculated as ˜2 μM (Ilangovan et al. 2013).
The experiment shown in FIG. 8 was then repeated using 4-(4-chlorophenyl)-5-methylene-pyrrol-2-one (Ref. 488) concentrations of 0, 50, 100 and 200 μM.
A partial agonist is a molecule that can bind to and activate a receptor resulting in a non-complete response compared with a full agonist. […] This contrasts with its activity as an antagonist in the presence of 10 or 40 μM PQS.

Test [3] concerns PqsABCD. The test is described as follows: AQ (HHQ) biosynthesis by PqsABCD, TLC with biosensor overlay. Format: cell-based, Pseudomonas aeruginosa. The following applies: 200 μM, PAO1-N ΔpqsAHR pBBR-pqsABCD, overnight in LB. The source says: To determine whether 4-(4-chlorophenyl)-5-methylene-pyrrol-2-one (Ref. 488) is capable of inhibiting the enzymes (PqsABCD) involved in AQ biosynthesis, the P. aeruginosa PAO1-N ΔpqsAHR was exploited. This mutant cannot produce AQs because the genes coding for the key biosynthetic enzymes (PqsA and PqsH) and regulation (PqsR) have been deleted. To restore AQ production in a PqsR-independent manner in PAO1-N ΔpqsA, the pqsABCD genes were introduced on a plasmid (pBBR pqsABCD; Niewerth et al. 2011). P. aeruginosa PAO1-N ΔpqsAHR and P. aeruginosa PAO1-N ΔpqsAHR pBBR pqsABCD were both incubated overnight in LB with and without 4-(4-chlorophenyl)-5-methylene-pyrrol-2-one (Ref. 488) (200 μM), resuspended to an OD600 1.0. The cultures were extracted with acidified ethyl acetate, the organic phase removed, dried and resuspended in methanol subjected to thin layer chromatography (TLC).
After chromatography using a dichloromethane-methanol mobile phase, the TLC plates were overlaid with a thin agar layer containing the AQ biosensor strain PAO1-L ΔpqsA CTX::pqsA′-luxCDABE (Fletcher et al. 2007) incubated and examined for reporter output (FIG. 13). […] The biosensor strain produces light (FIG. 13 panel C) and pyocyanin (FIG. 13 panel B) in response to AQs that bind to PqsR and activate the pqsA promoter.

Test [4] deals with P. aeruginosa PA14 pqsA'::lux. The test is described as follows: pqsA'::lux fusion in P. aeruginosa PA14. The following applies: Pseudomonas aeruginosa, PA14, read-out: IC50, pqsA'::lux expression in PA14. The class given is cell-based. The text has this: To investigate the inhibitory effect of 4-(4-chlorophenyl)-5-methylene-pyrrol-2-one (Ref. 488) on P. aeruginosa PA14, a pqsA′::lux fusion was introduced onto the chromosome.

Test [5] relates to PAO1-N ΔpqsAHR pqsA'::lux. The test is described as follows: PqsR-independent pqsA'::lux expression in PAO1-N ΔpqsAHR. The class given is cell-based, Pseudomonas aeruginosa. The following applies: presence or absence of 40 μM PQS, FIG. 11. The source says:
PQS is capable of weakly activating pqsA in the absence of PqsR via a mechanism that is not fully understood but appears to depend on the iron chelating properties of PQS. The aim of this experiment was to clarify whether lactam 4-(4-chlorophenyl)-5-methylene-pyrrol-2-one (Ref. 488) is also inhibitory for pqsA expression via the PqsR independent pathway. As previously described, the pqsA′::lux biosensor based on the triple mutant PAO1-N ΔpqsAHR cannot produce AQs and lacks pqsR but still responds to exogenous PQS. This response is however much weaker that the PqsR-dependent response.

Test [6] concerns P. aeruginosa strain PAO1-L. The test is described as follows: pyocyanin production by PAO1-L, visual assessment. Format: cell-based, Pseudomonas aeruginosa. To be noted: 100 μM (vial 2), 8 h at 37° C., qualitative. The text has this: Pyocyanin is a blue redox-active secondary metabolite and a putative signalling molecule in P. aeruginosa (Jayaseelan et al, 2014). The pyocyanin biosynthetic (phz) genes are regulated by QS and in part via the transcriptional regulator PqsR acting through PqsE (Rampioni et al 2011).
Although qualitative, this observation offers further confirmation of the inhibitory effects of lactam 4-(4-chlorophenyl)-5-methylene-pyrrol-2-one (Ref. 488) on AQ-dependent QS.

Like-named read-outs stand apart in the source and are kept apart here.

T1 sequence (Q9I4X0 whole entry, the tested form may be a part): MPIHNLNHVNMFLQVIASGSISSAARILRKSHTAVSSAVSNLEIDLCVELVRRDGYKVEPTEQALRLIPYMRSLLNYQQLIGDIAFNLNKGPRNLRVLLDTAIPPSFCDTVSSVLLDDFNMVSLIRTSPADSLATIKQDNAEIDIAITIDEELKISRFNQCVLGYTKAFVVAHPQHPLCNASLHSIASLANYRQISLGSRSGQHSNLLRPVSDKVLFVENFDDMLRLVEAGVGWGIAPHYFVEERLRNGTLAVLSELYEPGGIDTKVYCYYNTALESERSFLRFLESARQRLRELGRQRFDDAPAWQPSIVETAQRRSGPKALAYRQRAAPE

For the compound `C=C1NC(=O)C=C1c1ccc(C)cc1` [Lactam 491, 5-methylene-4-(p-tolyl)pyrrol-2-one], in test [1], the IC50 (commonly the concentration at which inhibition is half-maximal) was determined as 44 µM and the “inhibition of light output / pqsA expression at high concentrations” value is listed as “did not inhibit pqsA expression as strongly”.
For `C=C1NC(=O)C=C1c1ccc(Cl)cc1` [Lactam 488, 4-(4-chlorophenyl)-5-methylene-pyrrol-2-one], the “mode of action on PQS-dependent pqsA::lux expression” value in test [2] (488 at 0, 50, 100 and 200 μM, range of PQS, FIG. 9) is recorded as “competitive antagonist”. The “restoration of light output by PQS in the presence of the lactam” value in test [2] (488 at 50, 100, 200 μM, FIG. 9) is “fully restoring light output in the presence of 50 μM but not 100 μM or 200 μM”. The “partial agonist activity (activation of pqsA expression)” value in test [2] (concentrations up to 800 μM, without PQS, FIG. 10) was “no partial agonist activity”. For the same compound, the “fold increase of PQS EC50 caused by the lactam” value in test [2] (fixed concentration of 488 (215 μM)) was around 15 fold. For the same compound, the “inhibition of HHQ biosynthesis” value in test [3] is “did not inhibit HHQ biosynthesis”. In addition, the IC50 in test [1] stood at 22 µM; in test [4], 17.9 µM. In test [1], the “inhibition of light output / pqsA expression at high concentrations” value is recorded as “completely inhibited light output”. In addition, in test [1] (lactams at 100 μM, FIG. 3), the “inhibition of the PqsR-dependent pqsA::lux promoter fusion (screen)” value was “most potent inhibitor”. The “effect on the PqsR-independent expression of pqsA” value in test [5] is reported as “small inhibitory effect”. Also, in test [6], the pyocyanin production result is on record as “inhibition of pyocyanin production”.
For the compound `CCCCCCCc1[nH]c2ccccc2c(=O)c1O` [PQS, 2-heptyl-3-hydroxy-4-(1H)-quinolone, reference compound], the EC50 (commonly the concentration giving half of the maximal effect) in test [2] (EC50 of PQS for pqsA::lux expression in the presence of lactam 488, fixed concentration of 488 (215 μM), range of PQS concentrations, FIG. 8) is 31 µM; in test [2] (EC50 of PQS for pqsA::lux expression, PQS alone, PAO1-L ΔpqsA pqsA::lux) it was around 2 µM; in test [2] (PQS alone, PAO1-L ΔpqsA pqsA::lux, read-out: EC50 of PQS for pqsA::lux expression) it was 2 µM.
